# Entries after “also recorded” stand apart in the source; their conditions may differ. Counter-ions that a name gives are not always drawn.
# Tests used:
# [1] = system: GMC101 strain expressing human β-amyloid in muscle; experiment: Alzheimer's disease model: thermodependent paralysis of GMC101 strain; format: in vivo, C. elegans; conditions: 1 μg/ml
# Description: In this model, GFP-labelled dopaminergic neurons die due to α-synuclein toxicity. […] We also tested two different strains of Alzheimer's disease (AD) in worms, where immobility is caused by expression of βA protein in muscle cells.
# daf-2(e1370) = experiment: Developmental arrest (dauer / L1) at 25° C.; format: in vivo, C. elegans; conditions: daf-2(e1370) background
# Experimental: Worms were growth at 16° C. until L4, then shifted to 25° C. considering this Day 0 of adulthood. The pumping was counted under the Leica stereoscope at 100× magnification for 30 seconds. Data display from two independent biological assays (n=30 per day). Two-tailed Mann-Whitney t-test, ***p=0.0006. e Thrashing in sul-2(gk187) is similar to wild type but is slightly lower in sul-2 (pv17) at 25° C. on day 1 of adulthood. On day 6 at 25° of adulthood, the trashing on sul-2(gk187) is lower than wild type and sul-(pv17), with no differences among these last strains. The population of sul-2(gk17) at day 6 seems to distribute into two different populations, one with almost no thrashing and other with values similar to wild type a sul-2(pv17). […] In this condition, all animals from daf-2(e1370); sul-2(pv17) double mutants arrest at L1 stage. Similarly, more than 50% of animals arrest in L1 stage in daf-2(m577); sul-2(pv17) background, while none of the single mutants show this phenotype. i Example of sul-2(pv17) larvae, dauer larval arrest of daf-2(e1370) or L1 arrest of daf-2(e1370); sul-2 (pv17) and daf-2(e1370); sul-2(gk187) at 25° C. Animals were grown up to L4 at 16° C., then shifted at 25° C., progeny were scored or imaged after 72 hours. Photographs were taken in a Leica scope.
# C. elegans = experiment: Lifespan assays in C. elegans; format: in vivo, Caenorhabditis elegans; conditions: for life span / longevity: wild type background, FIG. 4f-g, FIG. 13c-d
# Experimental: F2 L4 animals were shifted to 25° C. (t=0). ES treatment started at L4 stage, control and treated plates were prepared fresh and animals transferred each three days until death. Animals lost or dead by non-physiological causes were censured. Survival curves were generated using the product-limit method of Kaplan and Meier. The log-rank (Mantel-Cox) test was used to evaluate differences in survival and […] lower than 0.05 were considered significant.
# [2] = system: NL5901 strain expressing α-synuclein in muscle cells; experiment: Parkinson's disease model: mobility of NL5901 strain; format: in vivo, C. elegans; conditions: 1 μg/ml
# Description: We have studied the anatomical location of sul-2 expression from an extrachromosomal array and in single-copy insertion transgenic strains. […] There is no detectable expression in the germline in any transgenic strains (FIG. 2n and FIG. 10, 11a-b). ASE neurons are responsible for the attractive response of Na+ and Cl−, among others. Defects in odour sensing affect longevity. Therefore, we tested the ability of sul-2 mutants to respond to Cl− or Na+ and found no differences compared to wild type animals (FIG. 11c-d). Furthermore, sul-2 mutation increases the longevity of daf-10(m79), a long-lived mutant defective in sensory cilia formation25 (FIG. 11e). […] Reduction of sul-2 improves aging associated diseases in C. elegans Aging is considered the main risk factor for the onset of neurodegenerative disorders like Parkinson, Huntington, or Alzheimer's diseases. These disorders are caused by the progressive decline of proteostasis, which results in protein aggregation that compromises cellular functions and finally causes cell death. Germline-deficient C. elegans delay the symptoms derived from the proteotoxicity of ectopically expressed human β-amyloid (βA). We tested if sul-2 mutations or STX64 treatment improves the symptoms of C. elegans models for neurodegenerative diseases.
# [3] = system: mammalian model with intrahippocampal βA oligomers; conditions: local administration; previously reported; cited from earlier work
# 16-month-old mice [4] = experiment: Open Field test; format: in vivo; conditions: FIG. 20; for habituation ability: aged animals, Open Field 15 minutes
# Experimental: (§1) The “Open Field” is a test where the mouse must explore an unknown space for 15 minutes. In this test, both mobility and habituation (cognitive parameter that measures the individual's ability to recognize the environment) can be studied. On the other hand, the “Y maze” test is a test where the mouse explores the maze for 6 minutes. This test evaluates the distance traveled as a measure of mobility and the ability to visit triplets of arms without repeating any of them as a sign of immediate memory.
# 16-month-old mice [5] = experiment: Y maze test; format: in vivo; conditions: aged animals, Y maze 6 minutes, FIG. 20
# Experimental: as §1
# aged mice [6] = experiment: Passive avoidance test in aged mice (STM and LTM); format: in vivo; conditions: aged mice, vs vehicle-treated, FIG. 21
# Experimental: (§2) The first, object recognition, after training with identical objects, tests the ability to identify different objects exposed together with a familiar one. When this happens, the object discrimination index is positive and higher than 0.1. […] For this purpose, during training, the entry latency to the preferred site is established and the aversive stimulus is administered.
# During short- and long-term memory tests (STM and LTM) if the mouse associated the preferred place to the aversive stimulus, the input latency increases with respect to training.
# aged mice [7] = experiment: Object recognition test in aged mice; format: in vivo; conditions: aged mice, vs vehicle-treated, FIG. 21
# Experimental: as §2
molecule,measurement,setting,value
"C[C@]12CC[C@H]3[C@@H](CCC4=CC(=O)CC[C@@]43C)[C@@H]1CC[C@@H]2OS(=O)(=O)O [TS, [(8R,9S,10R,13S,14S,17S)-10,13-dimethyl-3-oxo-1,2,6,7,8,9,11,12,14,15,16,17-dodecahydrocyclopenta[a]phenanthren-17-yl] hydrogen sulfate]",paralysis phenotype,"[1]; FIG. 3h, FIG. 4b",is ameliorate
same,paralysis phenotype,"[1]; normal NGM plates, FIG. 13a",is reduced
same,L1 arrest,daf-2(e1370),increase
same,life span / longevity,C. elegans; 1 μg/ml,does not affect longevity; also recorded: do not affect
same,mobility with age,[2],improved the mobility
"C[C@]12CC[C@H]3[C@@H](CCC4=CC(=O)CC[C@@]43C)[C@@H]1CC[C@@H]2O [T, testosterone]",mobility with age,[2],No effect is observed
same,mobility with age,[2]; listed as testosterone,showed no effect
pregnenolone sulfate [PregS],mobility with age,[2],No effect is observed
same,mobility with age,[2]; listed as pregnenolone sulfate,showed no effect
CCCCCCCCCCCCCC(=O)NCCc1ccc(OS(N)(=O)=O)cc1 [DU-14],memory loss,[3],could alleviate memory loss
C[C@]12CC[C@H](O)CC1=CC[C@@H]1[C@@H]2CC[C@]2(C)C(=O)CC[C@@H]12 [DHEA],mobility with age,[2],No effect is observed; also recorded: showed no effect
dehidroepiandrosterone sulfate [DHEAS],L1 arrest,daf-2(e1370),increase
same,life span / longevity,C. elegans; 1 μg/ml,does not affect longevity; also recorded: do not affect
same,mobility with age,[2],improved the mobility
"C[C@]12CC[C@H]3[C@@H](CCC4=CC(=O)CC[C@@]43C)[C@@H]1CC[C@H]2OS(=O)(=O)O [ES, N,N-diethylethanamine;[(8R,9S,10R,13S,14S,17R)-10,13-dimethyl-3-oxo-1,2,6,7,8,9,11,12,14,15,16,17-dodecahydrocyclopenta[a]phenanthren-17-yl]hydrogen sulfate]",motor ability (mobility),"16-month-old mice [4]; 16-month-old mice, Open Field mobility and Y maze distance traveled",tend to improve
same,habituation ability,16-month-old mice [4],tend to improve
same,habituation ability,16-month-old mice [4]; listed as E-S,are improved
same,paralysis phenotype,"[1]; FIG. 3h, FIG. 4b",is ameliorate
same,paralysis phenotype,"[1]; normal NGM plates, FIG. 13a",is reduced
same,immediate memory,16-month-old mice [5],tend to improve
same,immediate memory,16-month-old mice [5]; listed as E-S,are improved
same,L1 arrest,daf-2(e1370),increase
same,"learning (STM) and memory (LTM), passive avoidance test",aged mice [6],showed significantly both learning (STM) and ability to store information (memory); also recorded: significant improvement in both learning (STM) and ability to store information (memory)
same,"learning (STM) and memory (LTM), passive avoidance test",aged mice [6]; listed as E-S,showed significantly both learning (STM) and ability to store information (memory)
same,lifespan,"C. elegans; FIG. 15, treatment from L4 stage, 25° C., fer-15(b26) background, p<0.05 Log-Rank (Mantel-Cox)",significantly increased life span
same,lifespan,"C. elegans; sul-2(gk187) background, 1 μg/ml, FIG. 4f",does not further increase
same,lifespan,"C. elegans; sul-2(pv17) background, 1 μg/ml, FIG. 13c,d",does not increase further
same,longevity,C. elegans; sul-2 mutants backgrounds,did not further increase longevity
same,life span / longevity,C. elegans; 1 μg/ml,increases life span; also recorded: increased in longevity; also recorded: increases lifespan
same,mobility with age,[2],improved the mobility; also recorded: better result
same,"learning and memory, object recognition test",aged mice [7],showed significantly both learning (STM) and ability to store information (memory); also recorded: significant improvement in both learning (STM) and ability to store information (memory)
same,"learning and memory, object recognition test",aged mice [7]; listed as E-S,showed significantly both learning (STM) and ability to store information (memory)
